Test results published in article PMC8653689, “Phenanthrotriazine Derivatives Containing Arylidine Hydrazone Moieties as Novel Potential c-Met Inhibitors with Anticancer Effect” (Iranian Journal of Pharmaceutical Research : IJPR, 2021).
Read-outs that look alike come from different tables or passages of the source.

Key:
[1] = test system: MCF-7 (human breast adenocarcinoma) cells; test: MTT reduction assay, antiproliferative effect, MCF-7; type: cell-based
Text: (§1) Fetal bovine serum (FBS), phosphate-buffered saline (PBS), RPMI-1640, and trypsin were obtained from Biosera (Ringmer, UK). Penicillin/streptomycin and MTT (3-(4,5-dimethylthiazol-2-yl)-2,5-diphenyltetrazolium bromide) were from Sigma-Aldrich (Saint Louis, MO, USA) and Invitrogen (San Diego, CA, USA), respectively. Dimethyl sulfoxide and doxorubicin were purchased from Merck (Darmstadt, Germany) and EBEWE Pharma (Unterach, Austria), respectively. The cells were acquired from Iranian Biological Resource Center, Tehran, Iran (HT-29 (human colorectal adenocarcinoma), MCF-7 (human breast adenocarcinoma) and Vero (African green monkey kidney) cells) or National Cell Bank of Iran, Pasteur Institute, Tehran, Iran (MOLT-4 (lymphoblastic leukemia) cells).
(§2) MTT reduction assay was employed to assess the viability of cancer cells after being treated with synthesized derivatives as previously described ([34]). The cells were plated in flat-bottom 96-well microplates, at densities of 3 × 10^4 cells/mL (100 μL in each well) and then incubated overnight at 37 °C. Three to four different concentrations of synthesized derivatives (in the range of 1 to 100 μM) were placed in triplicate wells and the plates were incubated for 72 h at 37 °C. […] At the end of the incubation time, 80 μL of the media in each well was replaced with the same amount of growth medium without phenol red containing 0.5 mg/mL of MTT. Cells were further incubated at 37 °C for 4 h and then 80 μL of the solution of each well was removed. The addition of DMSO (200μL) to each well solubilized the formazan crystals formed inside the viable cells after 1-hour incubation followed by 30-minute shaking. The optical absorbance of the final solution was determined at 570 nm using a Bio-Tek multimode plate reader (Synergy HTX). The cell viability was calculated compared to untreated control cells by comparison of absorbance measurements. CurveExpert software (version 1.34 for Windows) was used to determine the IC50 value for each compound. To confirm the results, every experiment was repeated 3 to 5 times.

[2] = test system: MOLT-4 (lymphoblastic leukemia) cells; test: MTT reduction assay, antiproliferative effect, MOLT-4; type: cell-based, human; conditions: Homo sapiens, MOLT-4, 72 h, read-out: MOLT-4 IC50
Text: as §1, §2

[3] = test system: HT-29 (human colorectal adenocarcinoma) cells; test: MTT reduction assay, antiproliferative effect, HT-29; type: cell-based; conditions: Homo sapiens, HT-29, 72 h, read-out: HT-29 IC50
Text: as §1, §2

[4] = test system: Vero (African green monkey kidney) cells; test: MTT reduction assay, Vero normal cells; type: cell-based; conditions: Chlorocebus sabaeus, Vero, 72 h, read-out: Vero IC50
Text: as §1, §2

[5] = test system: MCF-7 cells; test: Hoechst 33258 staining, detection of apoptosis; type: cell-based, human; conditions: MCF-7, 72 h treatment, especially at 25 µM
Procedure: Hoechst 33258 was used as a DNA stain to detect apoptosis in cells. MCF-7 cells were seeded in a 6-well plate at a density of 5 × 10^4 cells/mL (2 mL per well) and incubated for 24 h. The whole medium was removed and different concentrations of test compounds 9g, 9j, 9k, and 9l diluted in 2 mL medium were placed in the different wells and incubated for 72 h. Afterward, the medium was removed again, 1 mL of 4% cold freshly prepared paraformaldehyde (PFA) was added, and cells were incubated for 20 min at room temperature. The cells were then washed 2 times with 1 ml PBS and incubated with 1 mL Hoechst 33258 2.5 µg/mL for 30 min in the dark at room temperature ([36], [37]). In the end, the cells were washed with 1 mL PBS and imaged with a fluorescence microscope.
Figure 3 Detection of apoptosis in MCF-7 cells by Hoechst staining. Hoechst 33258 was used as a DNA stain to detect apoptosis in MCF-7 cells treated with synthesized compounds. The cells were seeded in a 6-well plates and treated with different concentrations of test compounds 9g, 9j, 9k and 9l for 72 h. After removing the whole medium, 4% cold freshly prepared paraformaldehyde (PFA) was added for 20 min at room temperature, the cells were then washed twice with PBS, and incubated with Hoechst 33258 2.5 µg/mL for 30 min at room temperature in the dark. Finally, the cells were washed with PBS again and the plates were imaged with a fluorescence microscope

[6] = test system: MCF-7 cells; test: Cell cycle analysis, propidium iodide/RNase flow cytometric assay; type: cell-based, human; conditions: 48 h; for Effect on number of cells in G0/G1: MCF-7, 10 and 25 µM
Procedure: Alterations of the cell cycle were determined by the propidium iodide (PI)-RNase flow cytometric method ([35]). MCF-7 cells were used to determine the percentage of cells in each phase of the cell cycle. In 6-well plates, 2 × 10^5 cells were seeded in each well and incubated at 37 °C for 48 h. Afterward, they were treated for 48 h with derivatives 9g, 9j, 9k and 9l at 10 and 25 μM. The cells were then collected after trypsinization, washed twice with PBS, and fixed by 5 mL ethanol 70% for at least 24 h at -20 °C. After fixation, MCF-7 cells were washed with PBS two times and stained with PI 20 µg/mL and RNase 200 µg/mL for 30 min in the dark at room temperature. A FACS Calibur ﬂow cytometer (BD Biosciences) was used for the assays and 20,000 events were analyzed. The number of cells distributed in sub-G1, G0/G1, S, and G2/M were determined by CellQuest software (BD, USA).
Figure 2 Representative cell cycle histograms of MCF-7 cells treated with synthesized derivatives. Analysis of the percentage of cells in different phases of cell cycle was performed using propidium iodide (PI)-RNase flow cytometric assay. MCF-7 cells were seeded in 6-well microplates and treated with synthesized derivatives for 48 h. The cells were then collected and fixed in 70% ethanol overnight at -20 °C. In the end, the cells were stained with DNA staining solution (PI 20 µg/mL and RNase 200 µg/mL) for 30 min and 20,000 events were analyzed by a FACS Calibur ﬂow cytometer (BD Biosciences). Representative histograms of cells treated with compounds 9g, 9j, 9k and 9l are shown

[7] = Homo sapiens, MCF7, 72 h, read-out: MCF-7 IC50, MTT, 72 h incubation

| SMILES | IC50 [1, 7] [µM] | IC50 [2] [µM] | melting point [°C] | IC50 [3] [µM] | IC50 [4] [µM] | Apoptosis induction by Hoechst 33258 staining [5] | Percentage of cells in G0/G1 ([6]; MCF-7, 10 µM) | Percentage of cells in G2/M ([6]; MCF-7, 10 µM) | Percentage of cells in S ([6]; MCF-7, 10 µM) | Percentage of cells in Sub G1 ([6]; MCF-7, 10 µM) | Effect on cells in sub-G1 phase ([6]; MCF-7, 25 µM) | Percentage of cells in G0/G1 ([6]; MCF-7, 25 µM) | Percentage of cells in G2/M ([6]; MCF-7, 25 µM) | Percentage of cells in S ([6]; MCF-7, 25 µM) | Percentage of cells in Sub G1 ([6]; MCF-7, 25 µM) | Effect on number of cells in G0/G1 [6] | IC50 ([1]; read-out: MCF-7 IC50, MTT, 72 h incubation) [µM] |
| --- | --- | --- | --- | --- | --- | --- | --- | --- | --- | --- | --- | --- | --- | --- | --- | --- | --- |
| Oc1cccc(C=NNc2nnc3c4ccccc4c4ccccc4c3n2)c1 [Compound 9e, 3-((2-(phenanthro[9,10-e][1,2,4]triazin-3-yl)hydrazono)methyl)phenol] | 9.3 ± 1.6 | 4.4 ± 1.1 | 219 to 223 | 15.2 ± 2.1 | 30 ± 6 |  |  |  |  |  |  |  |  |  |  |  |  |
| COc1ccccc1C=NNc1nnc2c3ccccc3c3ccccc3c2n1 [Compound 9b, 3-(2-(2-methoxybenzylidene)hydrazinyl)phenanthro[9,10-e][1,2,4]triazine] | 15.2 ± 3.1 | 7.8 ± 1.8 | 252 to 254 | 20.1 ± 3 | 13 ± 1.8 |  |  |  |  |  |  |  |  |  |  |  |  |
| C(=NNc1nnc2c3ccccc3c3ccccc3c2n1)c1ccc[nH]1 [Compound 9k, 3-(2-((1H-pyrrol-2-yl)methylene)hydr-zinyl)phenanthro[9,10-e][1,2,4]triazine] | 4.5 ± 0.16 | 1.7 ± 0.2 | 210 to 214 | 14.3 ± 2.8 | 95.4 ± 12.4 | showed signs of apoptosis | 77.30 ± 2.8 | 16.63 ± 2.5 | 4.63 ± 0.7 | 1.31 ± 0.1 | increased the cells in the sub-G1 phase | 77.42 ± 3.7 | 16.13 ± 2.9 | 4.68 ± 1.2 | 1.69 ± 0.4 | significantly enhanced the number of cells in the G0/G1 | 4.7 ± 0.3 |
| N#Cc1ccc(C=NNc2nnc3c4ccccc4c4ccccc4c3n2)cc1 [Compound 9j, 4-((2-(phenanthro[9,10-e][1,2,4]triazin-3-yl)hydrazono)methyl)benzonitrile] | 5.8 ± 0.7 | 5.5 ± 0.1 | 231 to 234 | 15.3 ± 1.5 | 11.3 ± 2.1 | showed signs of apoptosis | 71.40 ± 2.2 | 17.95 ± 3.0 | 9.59 ± 2.0 | 1.08 ± 0.2 |  | 73.10 ± 3.0 | 17.51 ± 2.6 | 8.09 ± 2.0 | 1.30 ± 0.4 | significantly enhanced the number of cells in the G0/G1 |  |
| O=[N+]([O-])c1ccc(C=NNc2nnc3c4ccccc4c4ccccc4c3n2)cc1 [Compound 9i, 3-(2-(4-nitrobenzylidene)hydrazinyl)phenanthro[9,10-e][1,2,4]triazine] | 17.7 ± 1.7 | 7.5 ± 0.1 | 240 to 244 | 7.6 ± 0.8 | 7.4 ± 1.4 |  |  |  |  |  |  |  |  |  |  |  |  |
